{
  "source": "PubChem BioAssay AID1259407",
  "about": "(Chemical Carcinogenesis Research Information System (CCRIS), 2018)",
  "system": "CCRIS mutagenicity, Ames/micronucleus/aberration tests",
  "assay": "CCRIS mutagenicity studies",
  "key": {"[1]": {"conditions": "Test System: AMES SALMONELLA TYPHIMURIUM, Strain/Indicator: TA98, Metabolic Activation: NONE, Method: STANDARD PLATE"}, "[2]": {"conditions": "Test System: AMES SALMONELLA TYPHIMURIUM, Strain/Indicator: TA98, Metabolic Activation: RAT, LIVER, S-9, AROCLOR 1254, Method: STANDARD PLATE"}, "[3]": {"conditions": "Test System: AMES SALMONELLA TYPHIMURIUM, Strain/Indicator: TA100, Metabolic Activation: NONE, Method: STANDARD PLATE"}, "[4]": {"conditions": "Test System: AMES SALMONELLA TYPHIMURIUM, Strain/Indicator: TA100, Metabolic Activation: RAT, LIVER, S-9, AROCLOR 1254, Method: STANDARD PLATE"}, "[5]": {"conditions": "Test System: AMES SALMONELLA TYPHIMURIUM, Strain/Indicator: TA98, Metabolic Activation: NONE"}, "[6]": {"conditions": "Test System: AMES SALMONELLA TYPHIMURIUM, Strain/Indicator: TA100, Metabolic Activation: NONE"}, "[7]": {"conditions": "Test System: AMES SALMONELLA TYPHIMURIUM, Strain/Indicator: TA1537, Metabolic Activation: NONE"}},
  "note": "Activity calls are given as the source filed them. No rule for the calls is given here.",
  "data": [
    {"smiles": "O/N=C/C=N/O", "values": [
      {"measurement": "mutagenic call", "setting": "Test System: AMES SALMONELLA TYPHIMURIUM, Strain/Indicator: TA102, Metabolic Activation: RAT, LIVER, S-9, PHENOBARBITAL AND 5,6-BENZOFLAVONE, Method: STANDARD PLATE", "result": "inactive; negative"},
      {"measurement": "mutagenic call", "setting": "Test System: AMES SALMONELLA TYPHIMURIUM, Strain/Indicator: TA2638, Metabolic Activation: RAT, LIVER, S-9, PHENOBARBITAL AND 5,6-BENZOFLAVONE, Method: STANDARD PLATE", "result": "inactive; negative"},
      {"measurement": "mutagenic call", "setting": "Test System: E. COLI, Strain/Indicator: WP2 (PKM101), Metabolic Activation: RAT, LIVER, S-9, PHENOBARBITAL AND 5,6-BENZOFLAVONE, Method: STANDARD PLATE", "result": "inactive; negative"},
      {"measurement": "mutagenic call", "setting": "Test System: E. COLI, Strain/Indicator: WP2 UVRA (PKM101), Metabolic Activation: RAT, LIVER, S-9, PHENOBARBITAL AND 5,6-BENZOFLAVONE, Method: STANDARD PLATE", "result": "active; positive"}
    ]},
    {"smiles": "CC(C)c1c(C(=O)Nc2ccccc2)c(-c2ccccc2)c(-c2ccc(F)cc2)n1CC[C@@H](O)C[C@@H](O)CC(=O)O", "values": [
      {"measurement": "mutagenic call", "setting": "[1]", "result": "inactive; negative"},
      {"measurement": "mutagenic call", "setting": "[2]", "result": "inactive; negative"},
      {"measurement": "mutagenic call", "setting": "[3]", "result": "inactive; negative"},
      {"measurement": "mutagenic call", "setting": "[4]", "result": "inactive; negative"},
      {"measurement": "mutagenic call", "setting": "Test System: AMES SALMONELLA TYPHIMURIUM, Strain/Indicator: TA1535, Metabolic Activation: NONE, Method: STANDARD PLATE", "result": "inactive; negative"},
      {"measurement": "mutagenic call", "setting": "Test System: AMES SALMONELLA TYPHIMURIUM, Strain/Indicator: TA1535, Metabolic Activation: RAT, LIVER, S-9, AROCLOR 1254, Method: STANDARD PLATE", "result": "inactive; negative"},
      {"measurement": "mutagenic call", "setting": "Test System: AMES SALMONELLA TYPHIMURIUM, Strain/Indicator: TA1537, Metabolic Activation: NONE, Method: STANDARD PLATE", "result": "inactive; negative"},
      {"measurement": "mutagenic call", "setting": "Test System: AMES SALMONELLA TYPHIMURIUM, Strain/Indicator: TA1537, Metabolic Activation: RAT, LIVER, S-9, AROCLOR 1254, Method: STANDARD PLATE", "result": "inactive; negative"},
      {"measurement": "mutagenic call", "setting": "Test System: AMES SALMONELLA TYPHIMURIUM, Strain/Indicator: TA1538, Metabolic Activation: NONE, Method: STANDARD PLATE", "result": "inactive; negative"},
      {"measurement": "mutagenic call", "setting": "Test System: AMES SALMONELLA TYPHIMURIUM, Strain/Indicator: TA1538, Metabolic Activation: RAT, LIVER, S-9, AROCLOR 1254, Method: STANDARD PLATE", "result": "inactive; negative"},
      {"measurement": "mutagenic call", "setting": "Test System: CHINESE HAMSTER V-79, Strain/Indicator: V-79 (HGPRT)/6-THIOGUANINE, Metabolic Activation: NONE", "result": "inactive; negative"},
      {"measurement": "mutagenic call", "setting": "Test System: CHINESE HAMSTER V-79, Strain/Indicator: V-79 (HGPRT)/6-THIOGUANINE, Metabolic Activation: RAT, LIVER, S-9, AROCLOR 1254", "result": "inactive; negative"},
      {"measurement": "mutagenic call", "setting": "Test System: E. COLI, Strain/Indicator: WP2 UVRA, Metabolic Activation: NONE, Method: STANDARD PLATE", "result": "inactive; negative"},
      {"measurement": "mutagenic call", "setting": "Test System: E. COLI, Strain/Indicator: WP2 UVRA, Metabolic Activation: RAT, LIVER, S-9, AROCLOR 1254, Method: STANDARD PLATE", "result": "inactive; negative"}
    ]},
    {"smiles": "C=CCOc1ccccc1OCC(O)CNC(C)C", "note": "(stereo unspecified)", "values": [
      {"measurement": "mutagenic call", "setting": "[5]", "result": "inactive; negative"},
      {"measurement": "mutagenic call", "setting": "[1]", "result": "inactive; negative"},
      {"measurement": "mutagenic call", "setting": "Test System: AMES SALMONELLA TYPHIMURIUM, Strain/Indicator: TA98, Metabolic Activation: RAT, LIVER, S-9, AROCLOR 1254", "result": "inactive; negative"},
      {"measurement": "mutagenic call", "setting": "[2]", "result": "inactive; negative"},
      {"measurement": "mutagenic call", "setting": "[6]", "result": "inactive; negative"},
      {"measurement": "mutagenic call", "setting": "[3]", "result": "inactive; negative"},
      {"measurement": "mutagenic call", "setting": "Test System: AMES SALMONELLA TYPHIMURIUM, Strain/Indicator: TA100, Metabolic Activation: RAT, LIVER, S-9, AROCLOR 1254", "result": "inactive; negative"},
      {"measurement": "mutagenic call", "setting": "[4]", "result": "inactive; negative"},
      {"measurement": "mutagenic call", "setting": "Test System: AMES SALMONELLA TYPHIMURIUM, Strain/Indicator: TA1535, Metabolic Activation: NONE", "result": "inactive; negative"},
      {"measurement": "mutagenic call", "setting": "Test System: AMES SALMONELLA TYPHIMURIUM, Strain/Indicator: TA1535, Metabolic Activation: RAT, LIVER, S-9, AROCLOR 1254", "result": "inactive; negative"},
      {"measurement": "mutagenic call", "setting": "[7]", "result": "inactive; negative"},
      {"measurement": "mutagenic call", "setting": "Test System: AMES SALMONELLA TYPHIMURIUM, Strain/Indicator: TA1537, Metabolic Activation: RAT, LIVER, S-9, AROCLOR 1254", "result": "inactive; negative"},
      {"measurement": "mutagenic call", "setting": "Test System: CHINESE HAMSTER V-79, Strain/Indicator: V-79/6-THIOGUANINE, Metabolic Activation: NONE, Method: REPLATING", "result": "inactive; negative"},
      {"measurement": "mutagenic call", "setting": "Test System: CHINESE HAMSTER V-79, Strain/Indicator: V-79/6-THIOGUANINE, Metabolic Activation: RAT, HEPATOCYTES, Method: REPLATING", "result": "inactive; negative"},
      {"measurement": "mutagenic call", "setting": "Test System: UDS HUMAN HEPATOCYTES, Strain/Indicator: THY INCORP, Metabolic Activation: NONE, Method: AUTORADIOGRAPHY", "result": "inactive; negative"},
      {"measurement": "mutagenic call", "setting": "Test System: UDS RAT HEPATOCYTES, Strain/Indicator: THY INCORP, Metabolic Activation: NONE, Method: AUTORADIOGRAPHY", "result": "inactive; negative"}
    ]},
    {"smiles": "O=C1C=C2c3ccccc3-c3cccc(c32)C1=O", "values": [
      {"measurement": "mutagenic call", "setting": "Test System: AMES SALMONELLA TYPHIMURIUM, Strain/Indicator: TM677, Metabolic Activation: NONE, Method: PREINCUBATION", "result": "active; positive"},
      {"measurement": "mutagenic call", "setting": "Test System: AMES SALMONELLA TYPHIMURIUM, Strain/Indicator: TM677, Metabolic Activation: RAT, LIVER, POSTMITOCHONDRIAL SUPERNATANT, AROCLOR 1254, Method: PREINCUBATION", "result": "active; positive"}
    ]},
    {"smiles": "CC(=O)CC1CCC(=O)/C=C\\C(=O)OC(CC(C)=O)CCC(=O)/C=C\\C(=O)O1", "note": "(stereo unspecified)", "values": [
      {"measurement": "mutagenic call", "setting": "Test System: CHINESE HAMSTER V-79, Strain/Indicator: V-79 (HPRT)/6-THIOGUANINE, Metabolic Activation: NONE", "result": "active; positive"},
      {"measurement": "mutagenic call", "setting": "Test System: CHINESE HAMSTER V-79, Strain/Indicator: V-79 (HPRT)/6-THIOGUANINE, Metabolic Activation: RAT, LIVER, S-9, 3-METHYLCHOLANTHRENE", "result": "active; positive"}
    ]},
    {"smiles": "NC(=O)OC[C@@H]1[C@H](NC(=O)/C(=N\\OCC(=O)O)c2csc(N)n2)C(=O)N1S(=O)(=O)O", "values": [
      {"measurement": "mutagenic call", "setting": "[5]", "result": "inactive; negative"},
      {"measurement": "mutagenic call", "setting": "Test System: AMES SALMONELLA TYPHIMURIUM, Strain/Indicator: TA98, Metabolic Activation: S-9", "result": "inactive; negative"},
      {"measurement": "mutagenic call", "setting": "[6]", "result": "inactive; negative"},
      {"measurement": "mutagenic call", "setting": "Test System: AMES SALMONELLA TYPHIMURIUM, Strain/Indicator: TA100, Metabolic Activation: S-9", "result": "inactive; negative"},
      {"measurement": "mutagenic call", "setting": "[7]", "result": "inactive; negative"},
      {"measurement": "mutagenic call", "setting": "Test System: AMES SALMONELLA TYPHIMURIUM, Strain/Indicator: TA1537, Metabolic Activation: S-9", "result": "inactive; negative"},
      {"measurement": "mutagenic call", "setting": "Test System: E. COLI, Strain/Indicator: WP2 (HCR), Metabolic Activation: NONE", "result": "inactive; negative"},
      {"measurement": "mutagenic call", "setting": "Test System: E. COLI, Strain/Indicator: WP2 (HCR), Metabolic Activation: S-9", "result": "inactive; negative"}
    ]}
  ]
}
